Data from patent US10138282B2, “Peptide antagonist of LL-37” (INDIANA UNIVERSITY RESEARCH AND TECHNOLOGY CORPORATION, priority 2014, dated 2018).
“Also recorded” adds a separate entry of the source.

Assays:
[1] = tested on: TLR3 signaling; assay: IL-6 production (ELISA) in BEAS-2B cells induced with poly(I:C); type: cell-based, human
Method: (§1) IL-6 production was quantified by ELISA using the OptEIA™ kit (BD Biosciences). A typical assay used 2×10^4 BEAS-2B cells/well grown for 24 h in flat bottom 96-well plates. Poly(I:C) was added to a final concentration of 0.13 μg/ml. Antimicrobial peptides were added to the cell culture medium to a final concentration of 3 μM unless specified otherwise. All ELISA results shown were performed in triplicate and in at least three independent experiments.
(§2) To better define how residues in LL-37 contribute to function, several variants derived from LL-37 were tested for: 1) repression of TLR4 signaling by LPS, 2) enhancement of TLR3 signaling by poly(I:C), and 3) binding to LL-37. Signaling by TLR3 and TLR4 were monitored using ELISA to detect IL-6 secreted into the medium of BEAS-2B cells.

[2] = tested on: Reovirus dsRNA, Reo S4; assay: IL-6 production in BEAS-2B cells in the presence of Reovirus dsRNA Reo S4; type: cell-based, human
Method: as §1
Herein, we analyzed the LL-37 orthologs from Rhesus monkeys, pig, sheep, guinea pigs, rabbit, as well as mouse (FIG. 14A). All peptides were chemically synthesized and assayed for the induction of inflammatory cytokine IL-6 in the presence of the double-stranded RNA mimic, poly(I:C) or the Reovirus dsRNA, Reo S4 (FIGS. 14B and 14C). […] Importantly, all LL-37 orthologs tested had the ability to reduce IL-6 production in response to LPS (FIG. 14E).

[3] = tested on: Toll-like receptor 9; assay: IL-6 production in BEAS-2B cells in the presence of ssDNA ligand ODN; type: cell-based, human
[4] = tested on: TLR4 signaling; assay: IL-6 production (ELISA) in BEAS-2B cells induced with LPS; type: cell-based, human
Method: as §1, §2

[5] = Dynamic light scatter spectroscopy, hydrodynamic radius; type: physicochemical
Method: The hydrodynamic radii of LL-37 and other peptides were monitored by a Zetasizer Nano-S instrument (Malvern Instruments). All measurements were taken with 1 μM of peptide dissolved in phosphate buffer adjusted to the desired pH at 22° C.

[6] = target: T1, f-LL37 (Homo sapiens, UniProt P49913); assay: Fluorescence polarization, interaction of peptides with fluorescein-labeled LL-37; type: binding
T1 sequence (P49913 134-170 limits assumed): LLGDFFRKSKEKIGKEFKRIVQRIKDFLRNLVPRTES
Method: (§3) Peptide binding to poly(I:C) was analyzed by monitoring fluorescence polarization using the Synergy H1 microplate reader (BioTek). Fluorescein-labeled LL-37 was titrated to a 100 μL solution containing poly(I:C) and phosphate buffers at different pHs. Interactions between LL-37 and other peptides were analyzed using LL-37 labeled at the N-terminus with fluorescein (0.1 μM), and peptides were titrated from 1 nM to 1000 nM in phosphate buffer at pH 7.0. Interaction between poly(I:C) and different peptides was determined by titrating fluorescein-labeled poly(I:C) (0.1 μM) with peptides added to final concentrations of 10 to 500 nM in phosphate buffer at pH 7.4. All polarization assays were performed in triplicate.

[7] = tested on: Escherichia coli ATCC 25922; assay: MIC assay, broth microdilution (CLSI); type: cell-based; conditions: E. coli ATCC 25922
Method: MIC assays were performed according to protocols for broth microdilution according to the Clinical Laboratory Standards Institute (CLSI, 2015. Methods for Dilution Antimicrobial susceptibility tests for bacterial that grow aerobically; Approved standard—tenth edition).

[8] = tested on: LL-37 enhancement of TLR3 signaling; assay: Antagonism of LL-37/poly(I:C)-enhanced IL-6 production in BEAS-2B cells; type: cell-based, human
Method: as §1
We examined whether LL-29 could affect the enhancement of TLR3 signaling by WT LL-37/poly(I:C). An increasing amount of LL-29 along with a constant amount of LL-37/poly(I:C) was used to assess IL-6 production in BEAS-2B cells. […] That is, LL-29 abrogated LL-37's ability to enhance TLR3 signaling. That is, LL-29 is an example of a peptide antagonist of LL-37 function.

[9] = tested on: TLR3; assay: Confocal microscopy, co-localization with TLR3 in BEAS-2B cells; type: cell-based, human
Method: Cells were grown on poly-L-lysine coated coverslips to 60% confluency. After 1 h incubation with fluorescently-labeled peptides in the absence or presence of poly(I:C), the cells were washed with PBS and fixed with 4% paraformaldehyde for 15 min at room temperature. The cells were again washed with PBS and mounted on glass slides with anti-fade mounting medium and DAPI (Life Technology), then dried overnight in the dark. Micrographs were acquired with a Leica TCS SP5 confocal inverted-base microscope with a 63× oil objective. Images were analyzed by Leica LAS AF and Image J software. Colocalization of fluorophores was quantified using the Image J plug-in tool JACoP (16).
We examined whether it could prevent the trafficking of LL-37/poly(I:C) to endosomes that harbor TLR3. Confocal microscopy was used to examine the effect of LL-29 on the colocalization of LL-37/poly(I:C) with TLR3 in BEAS-2B cells.

[10] = target: T2, FPRL-1 receptor (Homo sapiens, UniProt P25090); assay: IL-6 production in BEAS-2B cells knocked down with siRNA (FPRL-1, EGFR, control); type: cell-based
T2 construct: a human lung epithelial cell line that expresses endogenous FPRL-1; endogenous in cells; host or cells: BEAS-2B
T2 sequence (P25090 1-351): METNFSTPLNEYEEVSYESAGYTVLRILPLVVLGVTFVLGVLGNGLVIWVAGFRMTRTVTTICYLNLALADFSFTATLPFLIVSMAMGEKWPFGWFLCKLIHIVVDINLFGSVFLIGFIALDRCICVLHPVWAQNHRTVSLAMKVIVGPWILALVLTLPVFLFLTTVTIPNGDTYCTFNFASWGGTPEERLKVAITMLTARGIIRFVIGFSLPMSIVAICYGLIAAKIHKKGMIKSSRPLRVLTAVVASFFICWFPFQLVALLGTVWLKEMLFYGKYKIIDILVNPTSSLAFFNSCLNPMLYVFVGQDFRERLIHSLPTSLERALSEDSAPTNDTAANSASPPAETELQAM
Method: BEAS-2B cells were seeded at 2×10^6 cells per 6-well plate for 6 h prior to transfection with 30 nM of a pool of three siRNAs from Santa Cruz Biotechnology. Transfections were done using Lipofectamine 2000.
Cells were grown on poly-L-lysine (Life Technologies). The level of target mRNA was analyzed using qRT-PCR and normalized to the levels of GAPDH mRNA. The sequences of the primers will be made available upon request. Poly(I:C) was added 48 h after siRNA transfection and IL-6 levels in the culture media were collected 24 h later.
LL-37's enhancement of TLR3 signaling required trafficking of LL-37/poly(:C) to endosomes via the FPRL-1 receptor. Therefore, we examined whether LL-29 used the FPRL-1 receptor to enter cells. siRNA was used to knock down the expression of either FPRL-1, EGFR, or TLR3. […] Co-localization of fLL-37 and rpIC was reduced to less than a third of the control. […] Knockdowns performed with siRNAs to either a nonspecific control or EGFR had no effect on the enhancement of IL-6 production.
Will LL-29 affect the use of the FPRL-1 receptor by the LL-37/poly(I:C) complex? BEAS-2B cells knocked down for FPRL-1 were treated with LL-37 along with additional concentrations of LL-37, Pentamide, LL-29, Peptide A, or LL8-37 (FIG. 6C). Signaling by TLR3 was determined by the amount of IL-6 secreted in the cell culture media. A control siRNA had no effect on WT LL-37/poly(I:C) enhancement of IL-6 production.
LL-37 uses the Formyl peptide receptor-like 1 (FPRL-1) receptor to deliver nucleic acids into endosomes, where activation of the Toll-like receptors that recognize nucleic acids takes place (Singh et al., 2014). We sought to determine whether the LL-37 orthologs from other mammals could also use the FPRL-1 in the human BEAS-2B cells to deliver dsRNA. BEAS-2B cells were treated with poly(I:C) along with the peptides and the peptides from pig, sheep, rabbit, and mouse had reduced ability to use the FPRL-1 to activate IL-6 production.

[11] = in vitro; type: cell-based; conditions: human, Half-life of LL-37 in cells
Method: Acidification of endosomes can activate cathepsins that can cleave TLR3, 7, and 9 and increase signaling. We examined whether LL-37 would be subject to proteolysis, possibly by cathepsins. BEAS-2B cells were treated with LL-37 in the absence or presence of poly(I:C) for 15 min, then washed with phosphate-buffered saline and incubated with fresh medium. The cells were harvested over time, lysed and subjected to Western blot analysis. LL-37 accumulation decreased over time, with an estimated half-life of 1 h (FIG. 4A, 4B). Cells treated with ammonium chloride or the cathepsin inhibitor Z-FA-FMK had half-lives in excess of 12 h (FIG. 4A, 4B).

[12] = tested on: poly(I:C); assay: Fluorescence polarization, peptide binding to poly(I:C)
Method: as §3
LL-37 accompanies dsRNA to endosomes containing TLR3. However, it is unknown whether LL-37 will release the dsRNA in endosomes. Johansson et al. (1998) have previously determined that a neutral pH is required for the activity of LL-37. We seek to determine whether LL-37 binding to dsRNA can be affected by pH.

CAP-18: LL-37 ortholog from rabbit, SEQ ID NO: 24 (GLRKRLRKFRNKIKEKLKKIGQKIQGLLPKLAPRTDY; (1)..(37) Rabbit CAP-18)
Enhancement of TLR3 signaling / poly(I:C)-induced IL-6, in words ([1]; BEAS-2B cells): failed to enhance signaling
Enhancement of IL-6 production / signaling by Reo S4, in words [2]: failed to enhance signaling
Induction of signaling by the ssDNA ligand for Toll-like receptor 9, in words [3]: failed to induce signaling

LLGDFFRKSKEKIGKEFKRIVQRIKDFLR ((1)..(29) LL29; listed as Homo sapiens) [LL-29]
Suppression of TLR4 signaling / LPS-induced IL-6, in words ([4]; BEAS-2B cells): retained the ability to suppress TLR4 signaling in response to LPS
IL-6 production (%) LPS-depend. ([4]; BEAS-2B cells induced with 1.0 μg/ml of LPS, LL-37 100): 143 ± 18%
IL-6 production in response to LPS, % of the control level without either of the two peptides ([4]; four molar excess of LL-29 to LL-37, BEAS-2B cells): 64%
IL-6 production (%) poly(I:C)-depend. ([1]; BEAS-2B cells induced with 130 ng/ml of poly(I:C), LL-37 100): 47 ± 3%
Hydrodynamic radius (nm) pH 5.8 ([5]; 1.0 μM peptide, phosphate buffer pH 5.8): 8 nm
Hydrodynamic radius (nm) pH 7.4 ([5]; 1.0 μM peptide, phosphate buffer pH 7.4): 1106 nm
pH-dependent dissociation of peptide particles, in words ([5]; acidification of phosphate buffer): readily dissociated into nanometer-sized particles; also recorded: dissociated as a function of pH
Interaction with fLL-37, in words [6]: interacted with fLL-37 to the same degree as LL-37; also recorded: comparable ability to interact with fLL-37
MIC assay result, peptide without antibiotic ([7]; peptide 10 μg/ml, antibiotic: None): growth
MIC (μg/ml) of Doxorubicin in the presence of peptide ([7]; peptide final conc. 10 μg/ml): ≤0.06 µg/mL
MIC (μg/ml) of Kanamycin in the presence of peptide ([7]; peptide final conc. 10 μg/ml): ≤0.5 µg/mL
MIC (μg/ml) of Trimethoprim in the presence of peptide ([7]; peptide final conc. 10 μg/ml): ≤0.06 µg/mL
Improvement of the MIC of antibiotics by peptide ([7]; with doxorubicin, kanamycin, trimethoprim): at least 4 fold
IL-6 production with LL-37/poly(I:C) at four molar excess of peptide, in words ([8]; four molar excess of LL-29 relative to LL-37): comparable to the level observed in the absence of LL-37
Antagonism of LL-37 enhancement of TLR3 signaling (IL-6), in words ([8]; peptide added with LL-37/poly(I:C), BEAS-2B cells): reduced the enhancement of TLR3 signaling by LL-37 in a concentration-dependent manner
Effect of added peptide on co-localization of fLL-37 and TLR3, in words ([9]; added to fLL-37 and poly(I:C)): reduced the co-localization between fLL-37 and TLR3
IL-6 production, peptide with poly(I:C), in words ([10]; knockdown of either FPRL-1 or EGFR): did not enhance IL-6 production
IL-6 production, peptide added along with LL-37 and poly(I:C), in words ([10]; siRNA to FPRL-1 or nonspecific control): resulted in a reduction in IL-6 levels

CC[C@H](C)[C@H](NC(=O)[C@H](CCCCN)NC(=O)[C@H](CCC(=O)O)NC(=O)[C@H](CCCCN)NC(=O)[C@H](CO)NC(=O)[C@H](CCCCN)NC(=O)[C@H](CCCNC(=N)N)NC(=O)[C@H](Cc1ccccc1)NC(=O)[C@H](Cc1ccccc1)NC(=O)[C@H](CC(=O)O)NC(=O)CNC(=O)[C@H](CC(C)C)NC(=O)[C@@H](N)CC(C)C)C(=O)NCC(=O)N[C@@H](CCCCN)C(=O)N[C@@H](CCC(=O)O)C(=O)N[C@@H](Cc1ccccc1)C(=O)N[C@@H](CCCCN)C(=O)N[C@@H](CCCNC(=N)N)C(=O)N[C@H](C(=O)N[C@H](C(=O)N[C@@H](CCC(N)=O)C(=O)N[C@@H](CCCNC(=N)N)C(=O)N[C@H](C(=O)N[C@@H](CCCCN)C(=O)N[C@@H](CC(=O)O)C(=O)N[C@@H](Cc1ccccc1)C(=O)N[C@@H](CC(C)C)C(=O)N[C@@H](CCCNC(=N)N)C(=O)N[C@@H](CC(N)=O)C(=O)N[C@@H](CC(C)C)C(=O)N[C@H](C(=O)N1CCC[C@H]1C(=O)N[C@@H](CCCNC(=N)N)C(=O)N[C@H](C(=O)N[C@@H](CCC(=O)O)C(=O)N[C@@H](CO)C(=O)O)[C@@H](C)O)C(C)C)[C@@H](C)CC)C(C)C)[C@@H](C)CC [LL-37]
half-life [11]: ~1 h
half-life ([11]; cells or culture medium): ~1 h

fLL-37: 5′ carboxyfluorescein coupled to the N-terminus of LL-37 [reference compound]
Binding to poly(I:C)/dsRNA in fluorescent polarization assay, in words [12]: polarization increased as a function of poly(I:C) concentration
Co-localization of peptide with TLR3, in words ([9]; with poly(I:C)): found to colocalize with TLR3
